Laboratory results taken from US10717764B2, “Therapeutically active compounds and their methods of use” (Agios Pharmaceuticals, Inc., priority 2013, dated 2020).

System: HT1080 cells (2-HG production)
Test: Cellular assay, inhibition of 2-HG production in HT1080 cells
Assay type: cell-based
Conditions: Homo sapiens, HT-1080, 48 h
Method: (§1) Cells (HT1080 or U87MG) are grown in T125 flasks in DMEM containing 10% FBS, 1× penicillin/streptomycin and 500 ug/mL G418 (present in U87MG cells only). They are harvested by trypsin and seeded into 96 well white bottom plates at a density of 5000 cell/well in 100 ul/well in DMEM with 10% FBS. […] Cells are incubated overnight at 37° C. in 5% CO2. The next day test compounds are made up at 2× the final concentration and 100 ul are added to each cell well. The final concentration of DMSO is 0.2% and the DMSO control wells are plated in row G. The plates are then placed in the incubator for 48 hours. […] The cell plate is placed back in the incubator for another 24 hours. At 72 hours post compound addition, 10 mL/plate of Promega Cell Titer Glo reagent is thawed and mixed. The cell plate is removed from the incubator and allowed to equilibrate to room temperature. Then 100 ul of Promega Cell Titer Glo reagent is added to each well of media. The cell plate is then placed on an orbital shaker for 10 minutes and then allowed to sit at room temperature for 20 minutes. The plate is then read for luminescence with an integration time of 500 ms.

| Compound | IC50 [nM] |
| --- | --- |
| O=C(NC1CCCCC1)[C@@H](c1ccccc1Cl)N(C(=O)[C@@H]1CCC(=O)N1c1ncccn1)c1cccc(F)c1 [Compound 6] | 100 to 500 |

System: U87MG cells (2-HG production)
Test: Cellular assay, inhibition of 2-HG production in U87MG cells
Assay type: cell-based
Conditions: Homo sapiens, U-87 MG, 48 h
Method: as §1

| Compound | IC50 [nM] |
| --- | --- |
| O=C(N[C@H]1CCC(F)(F)C1)[C@H](c1ccccc1Cl)N(C(=O)[C@@H]1CCC(=O)N1c1ncccn1)c1cccc(F)c1 (stereo in doubt) [Compound 73] | < 100 |
| C[C@]1(O)C[C@@H](C(=O)N(c2cccc(F)c2)[C@H](C(=O)NC2CC(F)(F)C2)c2ccccc2Cl)N(c2cc(C#N)ccn2)C1=O (stereo in doubt) [Compound 183, (2S)—N—((R)-1-(2-chlorophenyl)-2-(3,3-difluorocyclobutylamino)-2-oxoethyl)-1-(4-cyanopyridin-2-yl)-N-(3-fluorophenyl)-4-hydroxy-4-methyl-5-oxopyrrolidine-2-carboxamide] | < 100 |
| O=C(NC1CC(F)(F)C1)[C@H](c1ccccc1Cl)N(C(=O)[C@@H]1CCC(=O)N1c1ccccn1)c1cccc(F)c1 [Compound 5] | 100 to 500 |
| CS(=O)(=O)c1cc(F)cc(N(C(=O)[C@@H]2CCC(=O)N2c2cc(C#N)ccn2)C(C(=O)NC2CC(F)(F)C2)c2ccccc2Cl)c1 (stereo partly drawn) [Compound 110, (2S)—N-(1-(2-Chlorophenyl)-2-((3,3-difluorocyclobutyl)amino)-2-oxoethyl)-1-(4-cyanopyridin-2-yl)-N-(3-fluoro-5-(methylsulfonyl)phenyl)-5-oxopyrrolidine-2-carboxamide] | < 100 |
| N#Cc1ccnc(N2C(=O)CC[C@H]2C(=O)N(c2cc(F)cc(F)c2)[C@H](C(=O)NC2CC(F)(F)C2)c2ccccc2F)c1 [Compound 208, (S)-1-(4-Cyanopyridin-2-yl)-N—((S)-2-(3,3-difluorocyclobutylamino)-1-(2-fluorophenyl)-2-oxoethyl)-N-(3,5-difluorophenyl)-5-oxopyrrolidine-2-carboxamide] | < 100 |

Same assay, conditions: inhibition of 2-HG production, U87MG cells, 48 hours

| Compound | IC50 [nM] |
| --- | --- |
| N#Cc1cccc(N2C(=O)OC[C@H]2C(=O)N(c2cccc3cn[nH]c23)[C@H](C(=O)NC2CCC(F)(F)CC2)c2ccccc2Cl)c1 [Compound 142, (S)—N—((S)-1-(2-Chlorophenyl)-2-(4,4-difluorocyclohexylamino)-2-oxoethyl)-3-(3-cyanophenyl)-N-(1H-indazol-7-yl)-2-oxooxazolidine-4-carboxamide] | < 100 |
| (S)-tert-butyl 3-(((S)-1-(2-chlorophenyl)-2-((3,3-difluorocyclobutyl) amino)-2-oxoethyl)(3,5-difluorophenyl)carbamoyl)-5-oxopiperazine-1-carboxylate [Compound 97] | < 100 |
| (S)—N—((S)-1-(2-Chlorophenyl)-2-(3,3-difluorocyclobutylamino)-2-oxoethyl)-1-(3-cyano-phenyl)-N-(1H-indazol-7-yl)-5-oxopyrrolidine-2-carboxamide [Compound 186] | < 100 |
| (S)—N—((S)-1-(2-Chlorophenyl)-2-(3,3-difluorocyclobutylamino)-2-oxoethyl)-N-(3-cyano-5-fluorophenyl)-3-(3-cyanophenyl)-2-oxooxazolidine-4-carboxamide [Compound 134] | < 100 |
| (S)—N—((S)-1-(2-Chlorophenyl)-2-((3,3-difluorocyclobutyl)amino)-2-oxoethyl)-1-(4-cyanopyridin-2-yl)-N-(1H-indazol-6-yl)-5-oxopyrrolidine-2-carboxamide [Compound 205] | < 100 |
| (S)—N—((S)-1-(2-Chlorophenyl)-2-((3,3-difluorocyclobutyl)amino)-2-oxoethyl)-1-(4-cyanopyridin-2-yl)-N-(3,5-difluorophenyl)-5-oxopyrrolidine-2-carboxamide [Compound 71] | < 100 |
| (S)—N—((S)-1-(2-Chlorophenyl)-2-((4,4-difluorocyclohexyl)amino)-2-oxoethyl)-1-(4-cyanopyridin-2-yl)-N-(1H-indazol-6-yl)-5-oxopyrrolidine-2-carboxamide [Compound 136] | < 100 |
